Measured values: patent publication US20240327408A1, “COMPOUNDS CONTAINING TETRAHYDRONAPHTHYRIDINONE OR TETRAHYDROPYRIDOPYRIMIDINONE SKELETON, PREPARATION METHOD THEREFOR AND PHARMACEUTICAL USE THEREOF” (CHINA PHARMACEUTICAL UNIVERSITY, priority 2021, published 2024)
Read-outs that look alike come from different tables or passages of the source.

Columns and labels:
[1] = biological target: T1, hClpP (Homo sapiens, UniProt Q16740); assay: activating ClpP hydrolysis of FITC-casein (fluorescence kinetic detection); assay type: biochemical; settings: hClpP 1 μM, FITC-Casein 4 μM, 37° C.
T1 construct: made in house
T1 sequence (Q16740 57-277): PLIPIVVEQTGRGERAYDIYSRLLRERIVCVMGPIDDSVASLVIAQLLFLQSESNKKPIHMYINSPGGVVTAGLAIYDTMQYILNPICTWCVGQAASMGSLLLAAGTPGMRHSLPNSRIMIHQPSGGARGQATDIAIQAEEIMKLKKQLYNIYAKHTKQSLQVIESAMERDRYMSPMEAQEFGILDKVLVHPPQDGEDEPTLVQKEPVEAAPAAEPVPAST
Protocol: The specific procedures were as follows:
Test compounds were each prepared into a 100 mM stock solution in DMSO and stored. and 1 μL of stock solution of each of the compounds was taken and diluted to 10 mM by adding 9 μL of DMSO for later use.
The compounds of formula I of the present invention were each diluted at concentrations of 200 μM, 50 μM, 10 μM, 2 μM, 500 nM, 100 nM, 20 nM, and 2 nM in an assay buffer. 50 μL of each of the compounds at different concentrations was added to each well, with 2 replicate wells.
The protein was diluted to 4 μM in an assay buffer. 25 μL of protein was added to each well, and incubated at 37° C. for 30 min. The final concentration was 1 μM.
25 μL of FITC-Casein was added to each well. The final concentration was 4 μM. The mixture was immediately loaded on the machine for detection.
FITC-Casein and FITC-Casein+ClpP were used as negative controls.
The detection temperature was 37° C. The plate was shaken for 3 s. […] Kinetic parameters were set, and scanning was performed once every 1 min for 15 min.

[2] = system: MV4; 11 cells; assay: inhibiting the growth of MV4; 11 cells; assay type: cell-based

Cn1ccc(Cn2c(=O)c3c(c4cccnc42)CCN(Cc2ccccc2)C3)n1 [Compound I-58, 3-benzyl-6-((1-methyl-1H-pyrazol-3-yl)methyl)-2,3,4,6-tetrahydropyrido[3,4-c][1,8]naphthyridine-5-(1H)-one] gave an EC50 [1] of 10 to 100 µM and an IC50 ([2]; Homo sapiens) of 1 to 10 µM.

Cn1nccc1Cn1c(=O)c2c(c3cccnc31)CCN(Cc1ccccc1)C2 [Compound I-59, 3-benzyl-6-((1-methyl-1H-pyrazol-5-yl)methyl)-2,3,4,6-tetrahydropyrido[3,4-c][1,8]naphthyridine-5-(1H)-one] gave an EC50 [1] of 10 to 100 µM and an IC50 ([2]; Homo sapiens) of 1 to 10 µM.

Cc1cc(Cn2c(=O)c3c(c4cccnc42)CCN(Cc2ccccc2)C3)n(C)n1 [Compound I-60, 3-benzyl-6-((1,3-dimethyl-1H-pyrazol-5-yl)methyl)-2,3,4,6-tetrahydropyrido[3,4-c][1,8]naphthyridine-5-(1H)-one] showed an EC50 [1] of 10 to 100 µM and an IC50 ([2]; Homo sapiens) of 1 to 10 µM.

O=c1c2c(c3cccnc3n1Cc1ccccn1)CCN(Cc1ccccc1)C2 [Compound I-61, 3-benzyl-6-(pyridin-2-ylmethyl)-2,3,4,6-tetrahydropyrido[3,4-c][1,8]naphthyridine-5-(1H)-one] gave an EC50 [1] of 10 to 100 µM and an IC50 ([2]; Homo sapiens) of 1 to 10 µM.

With O=c1c2c(c3cccnc3n1Cc1cccnc1)CCN(Cc1ccccc1)C2 [Compound I-62, 3-benzyl-6-(pyridin-3-ylmethyl)-2,3,4,6-tetrahydropyrido[3,4-c][1,8]naphthyridine-5-(1H)-one] the EC50 [1] was 10 to 100 µM and the IC50 ([2]; Homo sapiens) was 1 to 10 µM.

O=c1c2c(c3cccnc3n1Cc1ccncc1)CCN(Cc1ccccc1)C2 [Compound I-63, 3-benzyl-6-(pyridin-4-ylmethyl)-2,3,4,6-tetrahydropyrido[3,4-c][1,8]naphthyridine-5-(1H)-one] gave an EC50 [1] of 10 to 100 µM and an IC50 ([2]; Homo sapiens) of 1 to 10 µM.

O=c1c2c(c3cccnc3n1Cc1cc(Cl)ccn1)CCN(Cc1ccccc1)C2 [Compound I-64, 3-benzyl-6-((4-chloropyridin-2-yl)methyl)-2,3,4,6-tetrahydropyrido[3,4-c][1,8]naphthyridine-5-(1H)-one] gave an EC50 [1] of 10 to 100 µM and an IC50 [2] of 1 to 10 µM.

Cn1ccnc1Cn1c(=O)c2c(c3cccnc31)CCN(Cc1ccccc1)C2 [Compound I-65, 3-benzyl-6-((1-methyl-1H-imidazol-2-yl)methyl)-2,3,4,6-tetrahydropyrido[3,4-c][1,8]naphthyridine-5-(1H)-one] was tested, and the EC50 [1] was 10 to 100 µM and the IC50 ([2]; Homo sapiens) was 1 to 10 µM.

With Cn1cnc(Cn2c(=O)c3c(c4cccnc42)CCN(Cc2ccccc2)C3)c1 [Compound I-66, 3-benzyl-6-((1-methyl-1H-imidazol-4-yl)methyl)-2,3,4,6-tetrahydropyrido[3,4-c][1,8]naphthyridine-5-(1H)-one] the EC50 [1] was 10 to 100 µM and the IC50 ([2]; Homo sapiens) was 1 to 10 µM.

Cn1cncc1Cn1c(=O)c2c(c3cccnc31)CCN(Cc1ccccc1)C2 [Compound I-67, 3-benzyl-6-((1-methyl-1H-imidazol-5-yl)methyl)-2,3,4,6-tetrahydropyrido[3,4-c][1,8]naphthyridine-5-(1H)-one] gave an EC50 [1] of 10 to 100 µM and an IC50 ([2]; Homo sapiens) of 1 to 10 µM.

Cc1noc(C)c1Cn1c(=O)c2c(c3cccnc31)CCN(Cc1ccccc1)C2 [Compound I-68, 3-benzyl-6-((3,5-dimethylisoxazol-4-yl)methyl)-2,3,4,6-tetrahydropyrido[3,4-c][1,8]naphthyridine-5-(1H)-one] was tested, and the EC50 [1] was 10 to 100 µM and the IC50 ([2]; Homo sapiens) was 1 to 10 µM.

Cc1ncc(Cn2c(=O)c3c(c4cccnc42)CCN(Cc2ccccc2)C3)s1 [Compound I-69, 3-benzyl-6-((2-methylthiazol-5-yl)methyl)-2,3,4,6-tetrahydropyrido[3,4-c][1,8]naphthyridine-5-(1H)-one] was tested, and the EC50 [1] was 10 to 100 µM and the IC50 ([2]; Homo sapiens) was 1 to 10 µM.

With O=c1c2c(c3cccnc3n1Cc1ccc(C(F)(F)F)cc1)CCN(Cc1ccccc1)C2 [Compound I-70, 3-benzyl-6-(4-(trifluoromethyl)benzyl)-2,3,4,6-tetrahydropyrido[3,4-c][1,8]naphthyridine-5-(1H)-one] the EC50 [1] was < 1 µM and the IC50 ([2]; Homo sapiens) was < 1 µM.

For O=c1c2c(c3cccnc3n1Cc1ccc(F)cc1)CCN(Cc1cccc(F)c1)C2 [Compound I-71, 3-(3-fluorobenzyl)-6-(4-fluorobenzyl)-2,3,4,6-tetrahydropyrido[3,4-c][1,8]naphthyridine-5-(1H)-one], the EC50 [1] was < 1 µM and the IC50 ([2]; Homo sapiens) was < 1 µM.

For O=c1c2c(c3cccnc3n1Cc1ccc(F)cc1)CCN(Cc1cccc(Cl)c1)C2 [Compound I-72, 3-(3-chlorobenzyl)-6-(4-fluorobenzyl)-2,3,4,6-tetrahydropyrido[3,4-c][1,8]naphthyridine-5-(1H)-one], the EC50 [1] was < 1 µM and the IC50 ([2]; Homo sapiens) was < 1 µM.

In the case of O=c1c2c(c3cccnc3n1Cc1ccc(F)cc1)CCN(Cc1cccc(Br)c1)C2 [Compound I-73, 3-(3-bromobenzyl)-6-(4-fluorobenzyl)-2,3,4,6-tetrahydropyrido[3,4-c][1,8]naphthyridine-5-(1H)-one], the EC50 [1] is reported as < 1 µM and the IC50 ([2]; Homo sapiens) is reported as < 1 µM.

With O=c1c2c(c3cccnc3n1Cc1ccc(Cl)cc1)CCN(Cc1cccc(F)c1)C2 [Compound I-74, 3-(3-fluorobenzyl)-6-(4-chlorobenzyl)-2,3,4,6-tetrahydropyrido[3,4-c][1,8]naphthyridine-5-(1H)-one] the EC50 [1] was < 1 µM and the IC50 ([2]; Homo sapiens) was < 1 µM.

For O=c1c2c(c3cccnc3n1Cc1ccc(Cl)cc1)CCN(Cc1cccc(Cl)c1)C2 [Compound I-75, 3-(3-chlorobenzyl)-6-(4-chlorobenzyl)-2,3,4,6-tetrahydropyrido[3,4-c][1,8]naphthyridine-5-(1H)-one], the EC50 [1] was < 1 µM and the IC50 ([2]; Homo sapiens) was < 1 µM.

In the case of O=c1c2c(c3cccnc3n1Cc1ccc(Cl)cc1)CCN(Cc1cccc(Br)c1)C2 [Compound I-76, 3-(3-bromobenzyl)-6-(4-chlorobenzyl)-2,3,4,6-tetrahydropyrido[3,4-c][1,8]naphthyridine-5-(1H)-one], the EC50 [1] is reported as < 1 µM and the IC50 ([2]; Homo sapiens) is reported as < 1 µM.

With O=c1c2c(c3cccnc3n1Cc1ccc(Br)cc1)CCN(Cc1cccc(F)c1)C2 [Compound I-77, 3-(3-fluorobenzyl)-6-(4-bromobenzyl)-2,3,4,6-tetrahydropyrido[3,4-c][1,8]naphthyridine-5-(1H)-one] the EC50 [1] was < 1 µM and the IC50 ([2]; Homo sapiens) was < 1 µM.

O=c1c2c(c3cccnc3n1Cc1ccc(Br)cc1)CCN(Cc1cccc(Cl)c1)C2 [Compound I-78, 3-(3-chlorobenzyl)-6-(4-bromobenzyl)-2,3,4,6-tetrahydropyrido[3,4-c][1,8]naphthyridine-5-(1H)-one] was tested, and the EC50 [1] was < 1 µM and the IC50 ([2]; Homo sapiens) was < 1 µM.

With O=c1c2c(c3cccnc3n1Cc1ccc(Br)cc1)CCN(Cc1cccc(Br)c1)C2 [Compound I-79, 3-(3-bromobenzyl)-6-(4-bromobenzyl)-2,3,4,6-tetrahydropyrido[3,4-c][1,8]naphthyridine-5-(1H)-one] the EC50 [1] was < 1 µM and the IC50 ([2]; Homo sapiens) was < 1 µM.

In the case of O=c1c2c(c3ccccc3n1Cc1ccc(C(F)(F)F)cc1)CCN(Cc1ccccc1)C2 [Compound I-80, 3-benzyl-6-(4-(trifluoromethyl)benzyl)-2,3,4,6-tetrahydrobenzo[c][2,7]naphthyridine-5-(1H)-one], the EC50 [1] is reported as < 1 µM and the IC50 ([2]; Homo sapiens) is reported as < 1 µM.

For O=c1c2c(c3cncnc3n1Cc1ccc(C(F)(F)F)cc1)CCN(Cc1ccccc1)C2 [Compound I-81, 8-benzyl-5-(4-(trifluoromethyl)benzyl)-7,8,9,10-tetrahydropyrimidinyl[4,5-c][2,7]naphthyridine-6-(5H)-one], the EC50 [1] was < 1 µM and the IC50 ([2]; Homo sapiens) was < 1 µM.

In the case of N#Cc1cccc(CN2CCc3c(c(=O)n(Cc4ccccc4)c4ncccc34)C2)c1 [Compound I-82, 6-benzyl-3-(3-cyanobenzyl)-2,3,4,6-tetrahydropyrido[3,4-c][1,8]naphthyridine-5-(1H)-one], the EC50 [1] is reported as < 1 µM and the IC50 ([2]; Homo sapiens) is reported as < 1 µM.

In the case of N#Cc1cccc(CN2CCc3c(c(=O)n(Cc4ccc(C(F)(F)F)cc4)c4ncccc34)C2)c1 [Compound I-83, 6-(4-trifluoromethylbenzyl)-3-(3-cyanobenzyl)-2,3,4,6-tetrahydropyrido[3,4-c][1,8]naphthyridine-5-(1H)-one], the EC50 [1] is reported as < 1 µM and the IC50 ([2]; Homo sapiens) is reported as < 1 µM.

For N#Cc1cccc(CN2CCc3c(c(=O)n(Cc4ccc(F)cc4)c4ncccc34)C2)c1 [Compound I-84, 6-(4-fluorobenzyl)-3-(3-cyanobenzyl)-2,3,4,6-tetrahydropyrido[3,4-c][1,8]naphthyridine-5-(1H)-one], the EC50 [1] was < 1 µM and the IC50 ([2]; Homo sapiens) was < 1 µM.

For N#Cc1cccc(CN2CCc3c(c(=O)n(Cc4ccc(Cl)cc4)c4ncccc34)C2)c1 [Compound I-85, 6-(4-chlorobenzyl)-3-(3-cyanobenzyl)-2,3,4,6-tetrahydropyrido[3,4-c][1,8]naphthyridine-5-(1H)-one], the EC50 [1] was < 1 µM and the IC50 ([2]; Homo sapiens) was < 1 µM.

For N#Cc1cccc(CN2CCc3c(c(=O)n(Cc4ccc(Br)cc4)c4ncccc34)C2)c1 [Compound I-86, 6-(4-bromobenzyl)-3-(3-cyanobenzyl)-2,3,4,6-tetrahydropyrido[3,4-c][1,8]naphthyridine-5-(1H)-one], the EC50 [1] was < 1 µM and the IC50 ([2]; Homo sapiens) was < 1 µM.

COc1ccc(Cn2c(=O)c3c(c4cccnc42)CCN(Cc2cccc(C#N)c2)C3)cc1 [Compound I-87, 6-(4-methoxybenzyl)-3-(3-cyanobenzyl)-2,3,4,6-tetrahydropyrido[3,4-c][1,8]naphthyridine-5-(1H)-one] was tested, and the EC50 [1] was < 1 µM and the IC50 ([2]; Homo sapiens) was < 1 µM.

For N#Cc1cccc(CN2CCc3c(c(=O)n(Cc4ccc([N+](=O)[O-])cc4)c4ncccc34)C2)c1 [Compound I-88, 6-(4-nitrobenzyl)-3-(3-cyanobenzyl)-2,3,4,6-tetrahydropyrido[3,4-c][1,8]naphthyridine-5-(1H)-one], the EC50 [1] was 1 to 10 µM and the IC50 ([2]; Homo sapiens) was 1 to 10 µM.
